Read-outs that look alike come from different tables or passages of the source.

Consider 2 compounds from US8835433B2, “Optically pure diastereomers of 10-Propargyl-10-deazaaminopterin and methods of using same for the treatment of cancer” (Allos Therapeutics, Inc., priority 2010, dated 2014).

In series [1] the test system is SKBR-3 (breast cancer) human tumor cell line. As to the kind of experiment: MTS growth inhibition assay, SKBR-3. To be noted: SK-BR-3, SK-BR3 (breast), 3 h treatment, 72 h recovery. The series is classed as cell-based. The procedure:
(§1) The agents PDX, PDX-10a, PDX-10b, were evaluated for growth inhibitory activity against, MDA-MB-435, SKBR-3 and NCI-H460 human tumor cell lines. Growth inhibition was measured by MTS assay following three hours of continuous treatment and a seventy-two hour recovery incubation. The purpose of these studies was to determine the cytotoxic activity of the compounds in the tumor cell lines studies studied.
Materials and Methods. Preparation of PDX-10a and PDX-10b was performed as discussed in Examples 1-2. The PDX compounds were diluted in dimethylsulfoxide (DMSO) at a concentration of 20 mM. From this solution a stock solution of 2 mM was made by dilution with phosphate-buffered saline (PBS). This 2 mM stock solution in 10% DMSO/90% PBS was used to make 2× concentrations of the titration series in cell growth medium which was added to the cell cultures in a 1:1 ratio to make 1× concentrations. Cell lines—The human tumor cell lines: MDA-MB-435 (melanoma), SKBR-3 (breast cancer) and NCI-H460 (lung cancer) were cultured in RPMI medium (RPMI; Nova Tech, Grand Island, N.Y.) containing ten percent dialyzed fetal bovine serum (FBS; Nova Tech). […]
Single Agent Pulse Studies—Treatment with test agents or standard agents (controls) was initiated 24 hours after plating cells (Day 1). […] Following incubation, the viable cell number was quantified by the MTS assay described below. […]
MTS Assay—Cell viability was determined using the MTS assay. […] Formazan production was quantified by spectrophotometric measurement at 490 nm and is proportional to viable cell number. […] Absorbance (OD) values were measured using a Dynex HD microplate reader at a single wavelength of 490 nm.
(§2) Data Analysis—Data from each experiment was collected and expressed as OD490 versus the log10 of the test agent concentration. […]

In series [2] the test system is MDA-MB-435 (melanoma) human tumor cell line. Description: MTS growth inhibition assay, MDA-MB-435. The series is classed as cell-based. To be noted: 3 h treatment, 72 h recovery. As to the method: as §1
(§3) Materials and Methods. Preparation of PDX-10a and PDX-10b was performed as discussed in Examples 1-2. The PDX compounds were diluted in dimethylsulfoxide (DMSO) at a concentration of 20 mM. From this solution a stock solution of 2 mM was made by dilution with phosphate-buffered saline (PBS). This 2 mM stock solution in 10% DMSO/90% PBS was used to make 2× concentrations of the titration series in cell growth medium which was added to the cell cultures in a 1:1 ratio to make 1× concentrations. Cell lines—The human tumor cell lines: MDA-MB-435 (melanoma), SKBR-3 (breast cancer) and NCI-H460 (lung cancer) were cultured in RPMI medium (RPMI; Nova Tech, Grand Island, N.Y.) containing ten percent dialyzed fetal bovine serum (FBS; Nova Tech). Once cells reached seventy percent confluency, they were trypsinized and resuspended in an alternate media (RPMI containing five percent dialyzed FBS (Hyclone, Logan, Utah). One day prior to treatment (Day 0), cultures were suspended at a concentration of 1−7.5×10^4 cell/ml and 100 μl aliquots were plated into each well of a 96-well microtiter plate at a final concentration of 1×10^3-7.5×10^3 cells/well. Cells were incubated for 24 hours at 37° C. prior to exposure with agents.
(§4) Test Agents—racemic PDX, and individual diastereomers PDX-10a and PDX-10b were prepared as described above. Cells were treated 24 hours after plating (Day 1) with vehicle (media) alone or the above test agents for three hours at concentrations between 3 μM and 10 μM.
(§5) Single Agent Pulse Studies—Treatment with test agents or standard agents (controls) was initiated 24 hours after plating cells (Day 1). Cells were incubated at 37° C. with each of the test agents or a “chemococktail” (positive control) consisting of 215 μM Etoposide, 20 μM Taxol, 38.5 nM Velcade at final concentration for three hours. Following treatment, drug was removed, growth media added, and cells incubated at 37° C. for 72 hours. Following incubation, the viable cell number was quantified by the MTS assay described below. Experiments were repeated twice at the same concentrations. Results from these studies were used to calculate an IC50 value (concentration of drug that inhibits cell growth by 50% of the vehicle) for each compound. IC50 values were generated with Prizm software.
(§6) MTS Assay—Cell viability was determined using the MTS assay. This colorimetric procedure measures conversion of the MTS reagent (a tetrazolium salt) to formazan by living cells. Formazan production was quantified by spectrophotometric measurement at 490 nm and is proportional to viable cell number. For these studies, cells were cultured and treated as listed above. At the end of the treatment, 20 μl MTS tetrazolium (1.9 mg/ml in PBS, pH 6.0) was added to the cells for 1 hour at 37° C. Absorbance (OD) values were measured using a Dynex HD microplate reader at a single wavelength of 490 nm.
as §2
On the technique in general: Formazan colour is commonly taken as a measure of viable cells.

Series [3] deals with NCI-H460 (lung cancer) human tumor cell line. Description: MTS growth inhibition assay, NCI-H460. The series is classed as cell-based. As to the method:
as §1, §3, §4, §5, §6
Data Analysis—Data from each experiment was collected and expressed as OD490 versus the log10 of the test agent concentration. Using the statistical analysis package of the Prizm analytical software (GraphPad, San Diego, Calif.), a non-linear curve fit was performed which yielded the 50% inhibition concentration of the test article (IC50).

A short description of series [4]: Pharmacokinetics in rat (PDX-T-07034-R). The series is classed as in vivo. As to conditions: plasma, 5 mg/kg; for half-life: read-out: t1/2 term. The procedure: Bioanalytical methods were developed and validated for quantitation of the 2 pralatrexate C10 diastereomers (PDX-10a and PDX-10b) in human, rat and dog plasma and urine. The basic bioanalytical method involves extraction of PDX-10a and PDX-10b from the matrix utilizing C18 solid-phase extraction (SPE) cartridges followed by derivatization (methylation with acetyl chloride) of the diastereomers for separation detection. The derivatized extracts are injected on a chiral high-performance liquid chromatography (HPLC) column for quantitation of each diastereomer by liquid chromatography-tandem mass spectrometry (LC/MS/MS). The lower limit of quantitation (LLOQ) for both diastereomers in plasma and urine matrices was 0.5 ng/mL. […]

Series [5] concerns cancer cell lines. As to the kind of experiment: In vitro cytotoxicity in additional solid and heme cancer cell lines. Type of series: cell-based. As to conditions: some / other cell lines (T-cell lymphoma, multiple myeloma, others); Example 5. As to the method: Additional cancer cell lines can be tested in accordance with the methods outlined in Example 3. Cancer cell lines for T-cell lymphoma, multiple myeloma, hematologic malignancies, head and neck cancer, cancer of the gastrointestinal tract, ovarian cancer, and osteosarcoma are tested with PDX-10a and PDX-10b.

[6] abbreviates: Homo sapiens, MDA-MB-435, MDA-MB-435 (melanoma).
Setting [7] is: Homo sapiens, NCI-H460, NCI-H460 (lung), 3 h treatment, 72 h recovery, MTS.
Where [8] appears, read: Homo sapiens, NCI-H460, NCI-H460 repeat assay.
Setting [9] is: both sexes, Day 1, 5 mg/kg, range of the mean for males and females and for PDX-10a and PDX-10b, read-out: CLtot.
Where [10] appears, read: both sexes, Day 1, 5 mg/kg, range of the mean for males and females and for PDX-10a and PDX-10b, read-out: Vdss.
Setting [11] is: both sexes, Day 1, 5 mg/kg, range of the mean for males and females and for PDX-10a and PDX-10b.
[12] abbreviates: both sexes, Day 1, calculated using average BW 0.35 kg, read-out: Vdss relative to BW.
Where [13] appears, read: both sexes, Day 85, 5 mg/kg, range of the mean for males and females and for PDX-10a and PDX-10b, read-out: CLtot.
[14] abbreviates: both sexes, Day 85, 5 mg/kg, range of the mean for males and females and for PDX-10a and PDX-10b, read-out: Vdss.
The mark [15] stands for this setting: both sexes, Day 85, 5 mg/kg, range of the mean for males and females and for PDX-10a and PDX-10b.
Where [16] appears, read: Day 1, calculated using average BW 0.35 kg, read-out: CLtot relative to BW.

Consider `C#CC[C@@H](Cc1cnc2nc(N)nc(N)c2n1)c1ccc(C(=O)N[C@@H](CCC(=O)O)C(=O)O)cc1` (single isomer, unassigned) [PDX-10a], for which the IC50 in series [1] was found to be 11.9 nM; in series [2] (setting [6]), 100 nM; in series [3] (setting [7]), 289 nM; in series [3] (setting [8]), 169 nM; in series [3] (NCI-H460 repeat assay), 169 nM. For the same compound, the clearance in series [4] (setting [9]) was 2.9 to 4 mL/min; in series [4] (setting [13]) it was 3.4 to 3.9 mL/min; in series [4] (setting [16]), roughly 10 mL/min/kg. Besides, the Vd in series [4] (setting [10]) is 0.07 to 0.89 L; in series [4] (setting [12]) it was 0.2 to 2.5 L/kg; in series [4] (setting [14]) it was 0.15 to 0.18 L. The half-life fell in the range of 60 to 1200 min in series [4] (setting [11]) and 60 to 360 min in series [4] (setting [15]). Further, in series [5], the “cytotoxic activity relative to racemate and other diastereomer” value is given as “increased activity relative to racemic PDX and/or PDX-10b”.
`C#CC[C@H](Cc1cnc2nc(N)nc(N)c2n1)c1ccc(C(=O)N[C@@H](CCC(=O)O)C(=O)O)cc1` (single isomer, unassigned) [PDX-10b]: the IC50 in series [1] turned out to be 26.1 nM; in series [2] (setting [6]), 121 nM; in series [2] (MDA-MB-435 (melanoma)), 121 nM; in series [3] (setting [7]), 45.8 nM; in series [3] (setting [8]) it was 46.2 nM. Moreover, the clearance in series [4] (setting [9]) is 2.9 to 4 mL/min; in series [4] (setting [13]), 3.4 to 3.9 mL/min; in series [4] (setting [16]), roughly 10 mL/min/kg. Also, the results for the Vd in series [4] (setting [10]), in series [4] (setting [12]) and in series [4] (setting [14]) were 0.07 to 0.89 L, 0.2 to 2.5 L/kg and 0.15 to 0.18 L, respectively. Moreover, the figures for the half-life in series [4] (setting [11]) and in series [4] (setting [15]) were 60 to 1200 min and 60 to 360 min, respectively. Moreover, the “cytotoxic activity relative to racemate and other diastereomer” value in series [5] is listed as “increased activity relative to racemic PDX and/or PDX-10a”.

Broadly, the IC50 is the concentration at which inhibition is half-maximal. A higher IC50 goes with weaker potency.
